Read-outs that look alike come from different tables or passages of the source.
Assays:
[1] = tested on: ERK phosphorylation; assay: Western blot of p-ERK in influenza-infected MDCK cells; format: cell-based, canine; details: 10 h; for viral-infection-induced ERK phosphorylation: 20 μM
[2] = tested on: A/PR/8/34 (H1N1); assay: microbe, parasite or virus in culture; details: Influenza A virus, MDCK, 72 h
[3] = tested on: A/Chicken/Korea/MS96/96 (H9N2); details: dog
[4] = tested on: influenza virus NS1; format: cell-based
[5] = tested on: MDCK cells
[6] = tested on: influenza virus NP; format: cell-based
[7] = tested on: A/PR/8/34 (H1N1); assay: in vitro; details: dog, SI (selective index, CC50/IC50)
[8] = tested on: p-Akt (Serine 473); assay: Western blot of p-Akt in influenza-infected MDCK cells; format: cell-based, canine; details: 20 μM, after viral infection, vs viral-infected/untreated cells
[9] = target: neuraminidase from A/Chicken/Korea/MS96/96 (H9N2) (Influenza A virus (A/Chicken/Korea/MS96/96(H9N2)), UniProt Q9J458); format: biochemical, influenza A viruses; details: read-out: Neuraminiase IC50
[10] = tested on: influenza vRNA (M gene); format: cell-based, influenza virus; details: 20 μM, all virus strains, at 12 and 18 h, vs infected/untreated cells (0.5% DMSO)
[11] = tested on: A/Chicken/Korea/MS96/96 (H9N2); assay: in vitro; details: dog, SI (selective index, CC50/IC50)
[12] = tested on: phosphorylation of MEK1/2; assay: Western blot of p-MEK1/2 in influenza-infected MDCK cells; format: cell-based, canine; details: 20 μM, 10 h, all strains
[13] = tested on: A/Hong Kong/8/68 (H3N2); details: dog
[14] = tested on: A/Hong Kong/8/68 (H3N2); assay: in vitro; details: dog, SI (selective index, CC50/IC50)
[15] = target: neuraminidase from A/PR/8/34 (H1N1) (Influenza A virus, UniProt P03468); assay: biochemical; parameters: species or system influenza A viruses
Chain of neuraminidase from A/PR/8/34 (H1N1) (P03468 whole entry, looked up): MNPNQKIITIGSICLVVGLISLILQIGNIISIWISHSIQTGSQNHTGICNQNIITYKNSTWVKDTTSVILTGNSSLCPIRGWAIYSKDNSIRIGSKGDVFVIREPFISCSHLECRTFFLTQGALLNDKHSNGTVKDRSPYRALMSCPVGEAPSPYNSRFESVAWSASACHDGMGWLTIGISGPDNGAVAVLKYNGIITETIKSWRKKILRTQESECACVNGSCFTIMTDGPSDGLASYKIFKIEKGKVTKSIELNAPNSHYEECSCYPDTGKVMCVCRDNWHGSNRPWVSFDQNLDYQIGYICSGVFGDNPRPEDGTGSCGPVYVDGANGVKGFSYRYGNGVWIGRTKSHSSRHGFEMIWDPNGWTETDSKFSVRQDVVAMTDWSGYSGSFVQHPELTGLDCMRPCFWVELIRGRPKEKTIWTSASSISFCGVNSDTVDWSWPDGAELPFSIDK

[16] = tested on: A/PR/8/34 (H1N1); details: dog
[17] = tested on: A/Hong Kong/8/68 (H3N2); assay: microbe, parasite or virus in culture; details: Influenza A virus, H3N2, MDCK, 72 h
[18] = tested on: influenza RNP export from the nucleus to the cytoplasm; assay: Confocal fluorescence imaging of influenza RNP nuclear export; format: cell-based, influenza virus (H1N1); details: 20 μM, H1N1-infected MDCK cells, 10 h
Experimental: MDCK cells were grown on a chamber slide, pre-coated with poly-L-lysine, and the monolayers were infected with influenza virus at 0.001 MOI for 1 h. The virus was removed and replaced by EMEM containing 10 μg/mL trypsin and each compound under test. All cells were cultured for 10 h at 37 °C in a 5% CO2 atmosphere and fixed in 4% paraformaldehyde solution for 15 min at room temperature. After washing, the cells were incubated at 37 °C for 1 h with an FITC-conjugated nucleoprotein (NP)-specific monoclonal antibody against influenza virus (Millipore, MA, USA) diluted at 1:50. After washing with PBS, cells were counterstained with 500 nM propidium iodide solution. Slides were mounted using the SlowFade Gold antifade reagent (Invitrogen, CA, USA). Confocal fluorescence imaging was performed using the Carl Zeiss LSM 510 META confocal microscope (Carl Zeiss Inc., Jena, Germany).
Figure 3 18-Hydroxyferruginol (1) and 18-oxoferruginol (2) inhibit the export of the influenza virus RNP complex from the nucleus to the cytoplasm. MDCK cells were infected with H1N1 at 0.001 MOI in the presence of 0.5% DMSO, 50 μM LY294002, 20 μM 18-hydroxyferruginol (1), or 20 μM 18-oxoferruginol (2). After 10 h, the cells were fixed in 4% paraformaldehyde. After blocking, the cells were incubated with the anti-NP antibody (green). Propidium iodide was used as a nuclear counterstain (red). Scale bar = 10 µm.

[19] = tested on: influenza vRNA (NP gene); format: cell-based, influenza virus
[20] = tested on: A/Chicken/Korea/MS96/96 (H9N2); assay: microbe, parasite or virus in culture; details: Influenza A virus, H9N2, MDCK, in Gallus gallus, 72 h
[21] = in vitro; details: dog
[22] = 20 μM, all three strains, 10 h after infection

Compound	viral-infection-induced ERK phosphorylation [1]	IC50 [2]	SI (selective index, CC50/IC50) [3]	accumulation of viral protein NS1 [4]	toxic effect on MDCK cells [5]	levels of influenza virus NP [6]	selectivity ratio [7]	p-Akt levels [8]	IC50 [9]	decrease of influenza vRNA levels (M gene) [10]	selectivity ratio [11]	phosphorylation of MEK1/2 induced by infection [12]	IC50 [15]	SI (selective index, CC50/IC50) [16]	IC50 [17]	influenza RNP export from the nucleus to the cytoplasm [18]	reduction of influenza vRNA levels (NP gene) [19, 22]	IC50 [20]	CC50 [21]	also measured
CC(C)c1cc2c(cc1O)[C@@]1(C)CCC[C@@](C)(C=O)[C@@H]1CC2 [Compound 2, 18-oxoferruginol]	inhibited viral-infection-induced ERK phosphorylation	18.3 ± 6.5 µM	3.81	markedly decreased	no toxic effect	reduction in the levels of influenza virus NP	2.13	decreased p-Akt levels	> 100 µM	60.7–92.4%	3.6	inhibited	> 100 µM	2.25	29.2 ± 1.9 µM	reduction in influenza RNP export from the nucleus to the cytoplasm	2–3 fold	10.8 ± 2.2 µM	41.2 ± 1.5 µM	SI (selective index, CC50/IC50) [13]: 1.41; selectivity ratio [14]: 1.33
COc1cccc(-c2cc(=O)c3ccccc3o2)c1N [PD98059, reference compound]																				reduction of influenza vRNA levels (NP gene) [19]: 4.3–9.1 fold
CC(C)c1cc2c(cc1O)[C@@]1(C)CCC[C@@](C)(CO)[C@@H]1CC2 [Compound 1, 18-hydroxyferruginol]	inhibited viral-infection-induced ERK phosphorylation	13.6 ± 1.4 µM	2.77	markedly decreased	no toxic effect	reduction in the levels of influenza virus NP	1.68	decreased p-Akt levels	82.2 µM	65.3–91.6%	1.79	inhibited	> 100 µM	2.61		reduction in influenza RNP export from the nucleus to the cytoplasm	2–2.5 fold	12.8 ± 0.1 µM	35.5 ± 0.4 µM	
CCOC(=O)C1=C[C@@H](OC(CC)CC)[C@H](NC(C)=O)[C@@H](N)C1 [Olseltamivir, oseltamivir, reference compound]		1.35 ± 1.2 µM													1.09 ± 0.5 µM			< 0.7 µM	> 500 µM	
O=c1cc(N2CCOCC2)oc2c(-c3ccccc3)cccc12 [LY294002, reference compound]																				ERK phosphorylation ([1]; 50 μM): strongly inhibited ERK phosphorylation; reduction of influenza vRNA levels (NP gene) ([19]; 50 μM, all three strains, 10 h after infection): 3.3–5.2 fold

From paper PMC10046907 (Current Issues in Molecular Biology, 2023)
